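Assay format: 96-well plates, 48-hour exposure. GI50 is the concentration that inhibits growth by half.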 Calls of active or inactive are those of the source. Rule as the data show it: active = GI50 up to about 1.1 µM and inactive = higher. Residues, ends and D or L forms follow the SMILES beside them. *: point of attachment. OBn = c1ccc(CO*)cc1
Experiments:
Experiment in all cases: growth of human tumour cells (NCI), 48 h
[1] = test system: BT-549
[2] = test system: DMS-273
[3] = test system: HOP-18
[4] = test system: KM-20L2
[5] = test system: LXFL 529
[6] = test system: SNB-78
[7] = test system: XF498
[8] = test system: DMS-114
[9] = test system: RXF 631

Compound: Cc1ccc(O)c(C2=NNC(c3cccc(Cl)c3)C2)c1 (centres undefined)
- GI50 [1]: > 100 µM (inactive)

Compound: O=[N+]([O-])/C=C/c1cn(CCCCCn2cc(/C=C/[N+](=O)[O-])c3ccccc32)c2ccccc12
- GI50 [1]: 1.28 µM (inactive)

Compound: CC1C2=CC=C(O2)C(C)(C)C2=CC=C(O2)C(C)(C)C2=CC=C(O2)C(C)(C)C2=CC=C1O2
- GI50 [2]: > 100 µM (inactive)
- GI50 [3]: > 100 µM (inactive)
- GI50 [4]: > 100 µM (inactive)
- GI50 [5]: > 100 µM (inactive)
- GI50 [6]: > 100 µM (inactive)
- GI50 [7]: > 100 µM (inactive)

Compound: O=C1CSC(c2c[nH]c3ccccc23)N1c1ccc(Cl)cc1 (centres undefined)
- GI50 [1]: > 100 µM (inactive)

Compound: Nc1nc(N)c(/N=N/c2ccc(C(=O)O)c(O)c2)c(N)n1
- GI50 [1]: > 100 µM (inactive)

Compound: COC(=O)c1c(O)ccc2c1c1c(n2Cc2ccccc2Cl)C(=O)c2ccccc2C1=O
- GI50 [1]: 12.6 µM (inactive)

Compound: c1csc(-c2cc(-c3ccsc3)c(-c3ccsc3)s2)c1
- GI50 [1]: > 100 µM (inactive)

Compound: CC1=C(C)C(=O)c2c(cc3ccccn23)C1=O
- GI50 [8]: 12.9 µM (inactive)
- GI50 [2]: 16.6 µM (inactive)
- GI50 [3]: 33.9 µM (inactive)
- GI50 [5]: 15.3 µM (inactive)
- GI50 [9]: 3.12 µM (inactive)
- GI50 [6]: 23.1 µM (inactive)

Compound: O=C(Sc1c(-c2ccccc2)c(=O)n(-c2ccccc2)c(=S)n1-c1ccccc1)c1ccco1
- GI50 [1]: > 100 µM (inactive)

Compound: CC1(C)C(C(=O)OC(C#N)c2cccc(OCC(=O)OCc3ccccc3)c2)C1(C)C (centres undefined)
- GI50 [1]: > 100 µM (inactive)

Compound: COc1ccc(NC2=CC(=O)C(=O)c3ccccc32)nn1
- GI50 [1]: 0.743 µM (active)

Compound: CC[C@H](C)[C@@H]([C@@H](CC(=O)N1CCC[C@H]1[C@H](OC)[C@@H](C)C(=O)NCCc1ccccc1)OC)N(C)C(=O)C(NC(=O)[C@H](C(C)C)N(C)C)C(C)C (some centres undefined)
- GI50 [1]: 0.000588 µM (active)

Compound: CC1=C(C(=O)OC(C)C)C(c2ccccc2[N+](=O)[O-])C(C(=O)OC(CO[N+](=O)[O-])CO[N+](=O)[O-])=C(C)N1 (centres undefined)
- GI50 [1]: 3.52 µM (inactive)

Compound: O=C(N/N=C1\C(=O)N(c2nccs2)C(=O)C(=O)C1c1nc2ccccc2s1)c1ccccc1O (centres undefined)
- GI50 [8]: 28.3 µM (inactive)
- GI50 [2]: 31.8 µM (inactive)
- GI50 [3]: 10.1 µM (inactive)
- GI50 [4]: > 100 µM (inactive)
- GI50 [5]: 32 µM (inactive)
- GI50 [6]: 33.3 µM (inactive)
- GI50 [7]: 27.1 µM (inactive)

Compound: C[C@]12CC[C@H]3[C@@H](CCC4=C[C@@H](OC5OCC(OC6OC(CO)C(O)C(O)C6O)C(O)C5O)CC[C@@]43C=O)[C@@]1(O)CCC2C1=CC(=O)OC1 (some centres undefined)
- GI50 [1]: 0.211 µM (active)

Compound: COc1ccc(/C=C2\N=C(N3CCCCC3)NC2=O)cc1
- GI50 [1]: > 100 µM (inactive)

Compound: CN/N=C(/Cc1occc(=O)c1O)C(=O)Nc1ccccc1C
- GI50 [8]: > 100 µM (inactive)
- GI50 [4]: > 100 µM (inactive)
- GI50 [5]: > 100 µM (inactive)
- GI50 [6]: > 100 µM (inactive)

Compound: CC(=O)Nc1c(C)cc2c(nc3n2CCC3OC(C)=O)c1[N+](=O)[O-] (centres undefined)
- GI50 [1]: > 100 µM (inactive)

Compound: COc1cc([C@@H]2c3cc4c(cc3[C@@H](OC(=O)c3cccc(N)c3)C3COC(=O)[C@@H]32)OCO4)cc(OC)c1O (some centres undefined)
- GI50 [8]: 3.66 µM (inactive)
- GI50 [2]: 0.525 µM (active)
- GI50 [4]: 1.41 µM (inactive)
- GI50 [5]: 0.76 µM (active)
- GI50 [6]: 64.4 µM (inactive)
- GI50 [7]: 0.863 µM (active)

Compound: CN(c1ccccc1)c1c(Cl)c(=O)oc2c1ccc1occc12
- GI50 [8]: > 100 µM (inactive)
- GI50 [2]: > 100 µM (inactive)
- GI50 [3]: > 100 µM (inactive)
- GI50 [4]: > 100 µM (inactive)
- GI50 [5]: > 100 µM (inactive)
- GI50 [9]: > 100 µM (inactive)
- GI50 [6]: > 100 µM (inactive)

Compound: COc1ccc(C23OCC(Cc4cc(OC)c(OC)cc42)C3COC(C)=O)cc1OC (centres undefined)
- GI50 [1]: > 100 µM (inactive)

Compound: Cc1cc(Br)c(N2C3=C(CC4=C2CCCC4=O)C(=O)CCC3)c(Br)c1
- GI50 [1]: 51.3 µM (inactive)

Compound: CCOC(=O)N1Cc2ccoc2C1
- GI50 [8]: > 100 µM (inactive)
- GI50 [2]: > 100 µM (inactive)
- GI50 [3]: > 100 µM (inactive)
- GI50 [4]: > 100 µM (inactive)
- GI50 [5]: > 100 µM (inactive)

Compound: CCCCON1C[C@@H](O)C(O)[C@@H](O)C1 (some centres undefined)
- GI50 [1]: > 100 µM (inactive)

Compound: Cc1cc(=O)oc2cc(OC(=O)Nc3ccccc3)ccc12
- GI50 [1]: 22.9 µM (inactive)

Compound: CCCCCCNC(=S)N/N=C(\C)c1ccccn1
- GI50 [1]: 0.111 µM (active)

Compound: CN=[S+]([O-])(c1ccccc1)c1ccccc1
- GI50 [8]: > 100 µM (inactive)
- GI50 [2]: > 100 µM (inactive)
- GI50 [3]: > 100 µM (inactive)
- GI50 [4]: > 100 µM (inactive)
- GI50 [6]: > 100 µM (inactive)
- GI50 [7]: > 100 µM (inactive)

Compound: Clc1sc(Cl)c2c1[C@H](Cl)C[C@@H]2Cl
- GI50 [1]: 26.5 µM (inactive)

Compound: Nc1ccc(C2=N/C(=C\c3cccc(N)c3)C(=O)O2)cc1
- GI50 [8]: > 100 µM (inactive)
- GI50 [4]: > 100 µM (inactive)
- GI50 [5]: > 100 µM (inactive)
- GI50 [9]: > 100 µM (inactive)
- GI50 [6]: > 100 µM (inactive)
- GI50 [7]: > 100 µM (inactive)

Compound: O=C(CN1CCCC1)Nc1ccc2c(c1)C1Oc3ccccc3CC1CO2 (centres undefined)
- GI50 [1]: 19.4 µM (inactive)

Compound: COC1OC(COCc2ccc(Cl)cc2)C(OCc2ccc(Cl)cc2)C1N=[N+]=[N-] (centres undefined)
- GI50 [8]: 24.2 µM (inactive)
- GI50 [3]: > 100 µM (inactive)
- GI50 [4]: 8 µM (inactive)
- GI50 [5]: 95.5 µM (inactive)
- GI50 [6]: > 100 µM (inactive)
- GI50 [7]: > 100 µM (inactive)

Compound: CC1(C)CC(=O)C2=C(C1)c1c(ccc3ccccc13)NC2c1cn(Cc2ccc(Cl)cc2)c2ccccc12 (centres undefined)
- GI50 [1]: 95.9 µM (inactive)

Compound: S=C1Cc2cc3ccccc3nc2-c2ccccc2N1
- GI50 [1]: > 33.8 µM (inactive)

Compound: O=C1c2c(ccc3c2CCCC3)CC1Cc1ccc2c(c1)CCCC2 (centres undefined)
- GI50 [1]: > 100 µM (inactive)

Compound: Cn1c(-c2ccc[se]2)ccc1-c1ccc(C=O)[se]1
- GI50 [1]: 17.1 µM (inactive)

Compound: O=[N+]([O-])C(=C(\Cl)NCCO)/C(Cl)=C(/Cl)Br
- GI50 [1]: 1.77 µM (inactive)

Compound: C[C@H](CCC(=O)O)[C@H]1CC[C@H]2[C@@H]3[C@H](O)C[C@@H]4C[C@H](O)CC[C@]4(C)[C@H]3C[C@H](O)[C@]12C
- GI50 [1]: > 100 µM (inactive)

Compound: O=c1c2cc(I)ccc2nc(-c2cccs2)n1/N=C/c1ccccc1
- GI50 [1]: > 100 µM (inactive)

Compound: O=C(O)c1ccc(C(c2c(O)oc3ccccc3c2=O)c2c(O)oc3ccccc3c2=O)cc1
- GI50 [1]: > 100 µM (inactive)

Compound: NC(CCC(=O)OCc1ccccc1)C(=O)NC(CCC(=O)OCc1ccccc1)C(=O)O (centres undefined) (H-Glu(OBn)-Glu(OBn)-OH; configuration not given here)
- GI50 [1]: > 100 µM (inactive)

Reference: ChEMBL document CHEMBL1201862, “PubChem BioAssay data set” (2004)
